US12655116B2, “Substituted isophthalic acid diamides” (Bayer Aktiengesellschaft, priority 2020, dated 2026)

Assays:
ABUTH [1] = assay: Pre-emergence herbicidal action against ABUTH; type: in vivo, Abutilon theophrasti; settings: Abutilon theophrasti, 504 h
How it was run: (§1)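 Pre-emergence soil-surface spray of formulated compound (WP or EC; 600 to 800 l/ha; 0.2% wetting agent) over seeds sown in sandy loam. After 3 weeks under greenhouse conditions, damage is estimated visually in percent against untreated plants.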

ALOMY [2] = assay: Pre-emergence herbicidal action against ALOMY; type: in vivo, Alopecurus myosuroides; settings: Alopecurus myosuroides, 504 h, pre-emergence; for pest or weed control at 80 g/ha: scored visually after 3 weeks vs untreated controls (100% = plants have died, 0% = like control plants)
How it was run: as §1

AMARE [3] = assay: Pre-emergence herbicidal action against AMARE; type: in vivo, Amaranthus retroflexus; settings: Amaranthus retroflexus, 504 h, scored visually after 3 weeks vs untreated controls, 100% = plants have died, 0% = like control plants
How it was run: as §1

AVEFA [4] = assay: Pre-emergence herbicidal action against AVEFA; type: in vivo, Avena fatua; settings: Avena fatua, 504 h; 80 g/ha, pre-emergence
How it was run: as §1

ECHCG = assay: Pre-emergence herbicidal action against ECHCG; type: in vivo, Echinochloa crus-galli; settings: Echinochloa crus-galli, 504 h, 80 g/ha
How it was run: as §1

LOLRI = assay: Pre-emergence herbicidal action against LOLRI; type: in vivo, Lolium rigidum; settings: Lolium rigidum, 504 h, 80 g/ha
How it was run: as §1

MATIN = assay: Pre-emergence herbicidal action against MATIN; type: in vivo, Matricaria inodora; settings: Tripleurospermum inodorum, 504 h; for pest or weed control at 80 g/ha: dosage 80 g/ha
How it was run: as §1

SETVI [5] = assay: Pre-emergence herbicidal action against SETVI; type: in vivo, Setaria viridis; settings: Setaria viridis, 504 h; for pest or weed control at 80 g/ha: dosage 80 g/ha
How it was run: as §1

VERPE [6] = assay: Pre-emergence herbicidal action against VERPE; type: in vivo, Veronica persica; settings: Veronica persica, 504 h; for pest or weed control at 20 g/ha: dosage 20 g/ha; for pest or weed control at 80 g/ha: dosage 80 g/ha
How it was run: as §1

VIOTR = assay: Pre-emergence herbicidal action against VIOTR; type: in vivo, Viola tricolor; settings: Viola tricolor, 504 h, dosage 80 g/ha
How it was run: as §1

ABUTH [7] = assay: Post-emergence herbicidal action against ABUTH; type: in vivo, Abutilon theophrasti; settings: Abutilon theophrasti, 504 h, visual assessment about 3 weeks after treatment vs untreated controls; for pest or weed control at 20 g/ha: dosage 20 g/ha
How it was run: (§2)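 Greenhouse plants in sandy loam were sprayed at the one-leaf stage, 2 to 3 weeks after sowing, with WP or EC formulations as aqueous suspension or emulsion (600 to 800 l/ha water, 0.2% wetting agent). Visual damage was scored about 3 weeks later versus untreated controls, 0% = like control, 100% = dead.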

ALOMY [8] = assay: Post-emergence herbicidal action against ALOMY; type: in vivo, Alopecurus myosuroides; settings: Alopecurus myosuroides, 504 h, dosage 20 g/ha, visual assessment about 3 weeks after treatment vs untreated controls
How it was run: as §2

AMARE [9] = assay: Post-emergence herbicidal action against AMARE; type: in vivo, Amaranthus retroflexus; settings: Amaranthus retroflexus, 504 h, 20 g/ha, visual assessment about 3 weeks after treatment, 100% = plants have died, 0% = like control plants
How it was run: as §2

AVEFA [10] = assay: Post-emergence herbicidal action against AVEFA; type: in vivo, Avena fatua; settings: Avena fatua, 504 h, 20 g/ha, visual assessment about 3 weeks after treatment, 100% = plants have died, 0% = like control plants
How it was run: as §2

SETVI [11] = assay: Post-emergence herbicidal action against SETVI; type: in vivo, Setaria viridis; settings: Setaria viridis, 504 h; for pest or weed control at 5 g/ha: dosage 5 g/ha; for pest or weed control at 20 g/ha: dosage 20 g/ha
How it was run: as §2

VERPE [12] = assay: Post-emergence herbicidal action against VERPE; type: in vivo, Veronica persica; settings: Veronica persica, 504 h, 20 g/ha
How it was run: as §2

Structure (SMILES)	pest or weed control at 80 g/ha (ALOMY [2])	pest or weed control at 20 g/ha (AMARE [3])	pest or weed control at 80 g/ha (AMARE [3])	pest or weed control at 80 g/ha (AVEFA [4])	pest or weed control at 80 g/ha (ECHCG)	pest or weed control at 80 g/ha (LOLRI)	pest or weed control at 80 g/ha (MATIN)	pest or weed control at 80 g/ha (SETVI [5])	pest or weed control at 20 g/ha (VERPE [6])	pest or weed control at 80 g/ha (VERPE [6])	pest or weed control at 80 g/ha (VIOTR)	pest or weed control at 20 g/ha (ABUTH [7])	pest or weed control at 20 g/ha (ALOMY [8])	pest or weed control at 20 g/ha (AMARE [9])	pest or weed control at 20 g/ha (AVEFA [10])	pest or weed control at 5 g/ha (SETVI [11])	pest or weed control at 20 g/ha (SETVI [11])	pest or weed control at 20 g/ha (VERPE [12])	other results
Cn1nnnc1NC(=O)c1ccc(Br)c(C(=O)NC2CC2)c1Br [Example 1-344]	100%	100%	100%	90%	90%	90%	100%	100%	80%	90%	100%	90%	100%	100%	80%	80%	90%	90%	pest or weed control at 80 g/ha (ABUTH [1]; 80 g/ha, scored visually after 3 weeks vs untreated controls (100% = plants have died, 0% = like control plants)): 100%; pest or weed control at 20 g/ha (ABUTH [1]; dosage 20 g/ha, scored visually after 3 weeks vs untreated controls, 100% = plants have died, 0% = like control plants, read-out: Pre-emergence action against ABUTH (herbicidal activity in percent)): 90%; pest or weed control at 20 g/ha (ALOMY [2]; 20 g/ha, scored visually after 3 weeks, 100% = plants have died, 0% = like control plants): 90%; pest or weed control at 20 g/ha (MATIN; dosage 20 g/ha): 90%
CNC(=O)c1c(Cl)ccc(C(=O)Nc2nnnn2C)c1Br [Example 1-349]	100%	100%	100%	100%	90%	90%	90%	100%	90%	90%	100%	90%	80%	100%	80%	90%	90%	80%	pest or weed control at 20 g/ha (SETVI [5]; dosage 20 g/ha): 90%; pest or weed control at 5 g/ha (ABUTH [7]; dosage 5 g/ha): 80%
